Experiment: Stain removal from calcium deficient hydroxyapatite disks (human tooth model), tea stain
Experimental: Tea staining Solution: 200 mL of high-purity deionized (HPDI) water was heated to boiling in a 500-mL beaker. The beaker was removed from heat and 4 Lipton™ tea bags were added. The tea bags were allowed to soak for 5 minutes. The tea bags were pressed with a spatμLa upon removal to remove liquid.
Tea staining Procedure: A calcium-deficient hydroxyapatite (HAP) disk (Clarkson Chromatography Products) was placed into a 50-mL centrifuge tube with 10 mL of tea solution. The centrifuge tube was gently shaken by hand for 15 minutes. The tea solution was decanted and replaced with 10 mL of HPDI water and vortexed for 30 seconds. The water was decanted and replaced with 10 additional mL of HPDI water and vortexed for 30 seconds. The disk was removed with forceps and patted dry with a tissue. The disk was allowed to air dry at room temperature for at least one hour.
Oxidation resistant chelating buffer: 0.25M 1-Hydroxyethylidenediphosphonic acid (etridonic acid) (Dequest® 2010, Thermphos) (HEPA) was pH adjusted by microtitration with 10N NaOH. 1.28 g of 1-Hydroxyethylidenediphosphonic acid was to a 25-mL volumetric flask and brought to volume with HPDI water. The solution was transferred to a 50-mL beaker with a stir bar and pH adjusted using 10.04N NaOH, monitored with a calibrated pH meter. Aliquat 336® (Cognis) (also suitable is Aliquat 134®) (N-methyl-tri-(n-octyl)ammonium chloride), (N-methyl TOA) or “HEPA” chelating pH Buffer: 2.5-μL of N-methyl TOA was added to 5 mL of pH 7 HEPA buffer and sonicated for 1 minute. pH 7 Sodium Dodecyl Sulfate (SDS)/HEPA Buffer: 10 mg of SDS was added to 5 mL of pH 7 HEPA buffer and sonicated for 1 minute. pH 8 SDS/HEPA Buffer: 10 mg of SDS was added to 5 mL of pH 8 HEPA buffer and sonicated for 1 minute.
• A. A tea stained disk was placed into the bowl of the bowl of a watch glass and 100 μL of pH 7 HEPA buffer was pipetted onto the disk surface. 3.7 mg of potassium ferrate(VI) was added to the disk surface and mixed gently. […] The disk was rinsed at 10 minutes with HPDI water. […] 1 mL of pH 7 HEPA buffer was added followed by 9 mL of HPDI water. 9.7 mg of potassium ferrate(VI) was added. The tube was gently hand shaken for 10 minutes. The disk was removed and rinsed with HPDI water. […] 10 mg of potassium ferrate(VI) was added to 1 mL of pH 7 HEPA buffer in a 50 mL centrifuge tube. 9 mL HPDI water was added, and the solution was shaken for a few seconds followed by the addition of a tea stained HAP disk. The disk was removed at 10 minutes and rinsed with HPDI water. […] 1.3 mg of potassium ferrate(VI) added and mixed into the solution.

[1] = disk A-2: 30 mg calcium carbonate + 250 μL HPDI water, 10 mg, no chelating buffer, rinsed at 5 minutes
[2] = disk A: 100 μL pH 7 HEPA buffer, 3.7 mg added to disk surface, rinsed at 10 minutes
[3] = disk B-1: 10 mg calcium carbonate + 12 mg in 2 mL pH 8 SDS/HEPA buffer, 5 minutes, then 1 mL buffer 45 minutes
[4] = disk B: 1 mL pH 7 HEPA buffer + 9 mL water, 9.7 mg, shaken 10 minutes
[5] = disk E: 100 μL pH 7 HEPA buffer, 1.4 mg, 5 minutes, then 100 μL pH 7 HEPA buffer 5 minutes
[6] = disk F: 100 μL pH 7 HEPA buffer + one drop of N-methyl TOA (emulsion), 1 mg
[7] = disk G: 100 μL N-methyl TOA/HEPA buffer, 0.7 mg, rinsed at 5 minutes, then 100 μL buffer 5 minutes
[8] = disk H: 100 μL N-methyl TOA/HEPA buffer, 1.3 mg, 5 minutes, then 2 x 100 μL buffer 5 minutes each
[9] = disk I: 100 μL N-methyl TOA/HEPA buffer, 1.3 mg (uneven distribution), 5 minutes, then 200 μL buffer
[10] = disk J: 200 μL N-methyl TOA/HEPA buffer, 2.3 mg, 5 minutes, then 200 μL buffer 5 minutes
[11] = disk K: 9.9 mg premixed in 1 mL N-methyl TOA/HEPA buffer, disk fully covered 10 minutes, then 400 μL buffer 45 minutes
[12] = disk L: 100 μL pH 7 SDS/HEPA buffer, 1.3 mg, 10 minutes, then 100 μL buffer ten minutes
[13] = disk M: 1 mL of 29.3 mg in 3 mL pH 7 SDS/HEPA buffer, 3 minutes, then buffer soaks 8 and 35 minutes, extra rinse
[14] = disk N: 1 mL of 29.3 mg in 3 mL pH 7 SDS/HEPA buffer, 3 minutes, then buffer soaks 8 and 35 minutes, extra rinse
[15] = disk P: overnight tea stain, 0.75 mL of 25 mg in 1.5 mL pH 8 SDS/HEPA buffer, 5 minutes, then 1 mL buffer 45 minutes, rinsed again after drying one hour
[16] = disk Q: overnight tea stain, 0.75 mL of 25 mg in 1.5 mL pH 8 SDS/HEPA buffer, 5 minutes, then 1 mL buffer 45 minutes
[17] = disk S: tea stained disk treated the same way as P and Q (replicate)
[18] = disk U: treated the same way as P and Q, then submerged in HPDI water 45 minutes instead of drying

potassium ferrate(VI)
L* (lightness/darkness) [1]: 69.5
a* (blue/red) [1]: 14.4
appearance of disk after treatment [1]: the color was not removed
b* (yellow/green) [1]: 26
reflectance of visible light at 450 nm [1]: 22.036
reflectance of visible light at 750 nm [1]: 64.152
ΔE (versus tea stain) [1]: 29.21
L* (lightness/darkness) [2]: 72
a* (blue/red) [2]: 2.6
appearance of disk after treatment [2]: stained purple with rust stains
b* (yellow/green) [2]: −1.1
reflectance of visible light at 450 nm [2]: 44.547
reflectance of visible light at 750 nm [2]: 61.521
ΔE (versus tea stain) [2]: 13.57
L* (lightness/darkness) [3]: 100.8
a* (blue/red) [3]: 0.5
appearance of disk after treatment [3]: All stains were removed
b* (yellow/green) [3]: 0.1
reflectance of visible light at 450 nm [3]: 100.124
reflectance of visible light at 750 nm [3]: 103.677
ΔE (versus B-2, tea stained) [3]: 15.29
L* (lightness/darkness) [4]: 79.1
a* (blue/red) [4]: 1.6
appearance of disk after treatment [4]: stained purple with rust stains
b* (yellow/green) [4]: −2
reflectance of visible light at 450 nm [4]: 57.457
reflectance of visible light at 750 nm [4]: 69.889
ΔE (versus tea stain) [4]: 8.29
appearance of disk after treatment (disk C: 10 mg premixed in 1 mL pH 7 HEPA buffer + 9 mL water, disk removed at 10 minutes): stained purple
L* (lightness/darkness) [5]: 90.1
a* (blue/red) [5]: 1.3
appearance of disk after treatment [5]: lighter purple than previous examples
b* (yellow/green) [5]: −2.2
reflectance of visible light at 450 nm [5]: 77.562
reflectance of visible light at 750 nm [5]: 87.011
ΔE (versus unstained disk) [5]: 4.24
L* (lightness/darkness) [6]: 77
a* (blue/red) [6]: 2.1
appearance of disk after treatment [6]: purple with streaks where mixing occurred
b* (yellow/green) [6]: 0.7
reflectance of visible light at 450 nm [6]: 44.547
reflectance of visible light at 750 nm [6]: 68.873
ΔE (versus tea stain) [6]: 8.65
L* (lightness/darkness) [7]: 94
a* (blue/red) [7]: 0.6
appearance of disk after treatment [7]: purple color was removed but brown staining observed
b* (yellow/green) [7]: −0.1
reflectance of visible light at 450 nm [7]: 82.923
reflectance of visible light at 750 nm [7]: 92.128
ΔE (versus tea stain) [7]: 10.88
L* (lightness/darkness) [8]: 93.6
a* (blue/red) [8]: 1.3
appearance of disk after treatment [8]: light brown color
b* (yellow/green) [8]: 0.6
reflectance of visible light at 450 nm [8]: 82.479
reflectance of visible light at 750 nm [8]: 93.202
ΔE (versus tea stain) [8]: 10.06
L* (lightness/darkness) [9]: 91.2
a* (blue/red) [9]: −0.8
appearance of disk after treatment [9]: More decoloring was observed at the center
b* (yellow/green) [9]: −4.7
reflectance of visible light at 450 nm [9]: 83.889
reflectance of visible light at 750 nm [9]: 83.121
ΔE (versus tea stain) [9]: 11.69
L* (lightness/darkness) [10]: 87.5
a* (blue/red) [10]: −0.1
appearance of disk after treatment [10]: Rust spots observed
b* (yellow/green) [10]: −3.9
reflectance of visible light at 450 nm [10]: 44.547
reflectance of visible light at 750 nm [10]: 78.071
ΔE (versus tea stain) [10]: 9.10
L* (lightness/darkness) [11]: 100.8
a* (blue/red) [11]: −0.3
appearance of disk after treatment [11]: Significant color removal was observed
b* (yellow/green) [11]: −2.1
reflectance of visible light at 450 nm [11]: 102.827
reflectance of visible light at 750 nm [11]: 103.311
ΔE (versus tea stain) [11]: 17.77
L* (lightness/darkness) [12]: 99.1
a* (blue/red) [12]: −0.4
appearance of disk after treatment [12]: Most of the color was removed from the center of the disk
b* (yellow/green) [12]: −2.2
reflectance of visible light at 450 nm [12]: 99.384
reflectance of visible light at 750 nm [12]: 98.847
ΔE (versus tea stain) [12]: 16.32
L* (lightness/darkness) [13]: 100.1
a* (blue/red) [13]: 0
b* (yellow/green) [13]: −1.9
reflectance of visible light at 450 nm [13]: 100.820
reflectance of visible light at 750 nm [13]: 102.480
ΔE (versus disk 0) [13]: 12.15
L* (lightness/darkness) [14]: 100.6
a* (blue/red) [14]: −0.3
b* (yellow/green) [14]: −1.4
reflectance of visible light at 450 nm [14]: 101.538
reflectance of visible light at 750 nm [14]: 101.930
ΔE (versus disk O) [14]: 12.63
L* (lightness/darkness) [15]: 103.5
a* (blue/red) [15]: −2.1
b* (yellow/green) [15]: −3.2
reflectance of visible light at 450 nm [15]: 111.059
reflectance of visible light at 750 nm [15]: 103.081
ΔE (versus disk R) [15]: 25.40
L* (lightness/darkness) [16]: 101.8
a* (blue/red) [16]: −1.2
b* (yellow/green) [16]: −0.7
reflectance of visible light at 450 nm [16]: 103.784
reflectance of visible light at 750 nm [16]: 101.164
ΔE (versus disk R) [16]: 22.83
L* (lightness/darkness) [17]: 99.3
a* (blue/red) [17]: 0
reflectance of visible light at 450 nm [17]: 98.555
reflectance of visible light at 750 nm [17]: 98.659
L* (lightness/darkness) [18]: 96.9
a* (blue/red) [18]: 0.4
appearance of disk after treatment [18]: Color was removed as effectively as with a dried sample
b* (yellow/green) [18]: 0.3
reflectance of visible light at 450 nm [18]: 89.892
reflectance of visible light at 750 nm [18]: 94.030
ΔE (versus tea stain) [18]: 13.44

From patent US8663607B2, “Ferrate(VI)-containing compositions and methods of using ferrate(VI)” (Battelle Memorial Institute, priority 2007, dated 2014)
